According to patent US11505523B2, “HDAC8 inhibitors for treating cancer” (City of Hope, priority 2013, dated 2022):
Entries after “also recorded” stand apart in the source; their conditions may differ.

Columns and labels:
H1299 cells = experiment: Cytotoxicity / anti-proliferative activity in H1299 lung cancer cells
A549 cells = experiment: Cytotoxicity / anti-proliferative activity in A549 lung cancer cells; conditions: result in words
[1] = test system: p53 target genes in 32D-CM cells; experiment: qRT-PCR of p53 target genes in 32D-CM cells; type: cell-based; conditions: 10 μM, 16 h
MV4-11 cells = experiment: Survival/apoptosis of MV4-11 AML cells by Annexin V labeling; type: cell-based, human
[2] = test system: inv(16)^+ AML CD34^+ cells; experiment: Apoptosis of inv(16)+ AML CD34+ cells, Annexin V staining; type: cell-based, human
Source text: Given that the frequency of TP53 mutation is relatively low in AML, altered post-translational modification by HDAC8 could represent an alternative p53-inactivating mechanism and contribute to drug resistance of AML stem cells. We first examined the expression of HDAC8 in CD34^+ stem and progenitor cells isolated from patients with inv(16)^+ AML compared to normal mobilized peripheral blood stem cells (PBSC).

[3] = test system: Ac-p53 and p53 in MV4-11 cells; experiment: Western blot of Ac-p53 and p53 in MV4-11 cells; type: cell-based, human; conditions: 6-hr, increased HDAC8i concentration
Protocol: FIGS. 21A-21D. HDAC8 inhibition activates p53 and induces p53-dependent apoptosis in human AML cells. […] FIG. 21B: Western blot analysis of Ac-p53, total p53, Ac-H3, Ac-H4, β-actin in MV4-11 cells treated with indicated doses of HDAC8i for 6 h. FIG. 21C: Fold change in mRNA levels of p53 targets after treatment with PCI-48012 ([…]) for 16 h. FIG. 21D: Western blot analysis of p53, β-actin in MV4-11 cells transduced with control or sh-p53 (top). Relative survival of control or sh-p53 transduced MV4-11 cells treated with HDAC8i (bottom).

HDAC11 = HDAC11 (Homo sapiens (Human), UniProt Q96DB2); experiment: Inhibition of purified HDAC11; conditions: read-out: HDAC 11 IC50; class IV
[4] = test system: dTomato^+/cKit^+ AML cells; experiment: In vivo administration of 22d to mice transplanted with AML cells
Protocol: FIG. 7A-7I. […] FIG. 7A: Schematic illustration of experimental design. Cbfb^+/56MMx1Cre/tdTomato^+ mice were induced with pIpC and AML cells were isolated from bone marrow of moribund mice and transplanted into sub-lethally irradiated (6.5 Gy) C57Bl/6 congenic mice. […] AML engraftment was analyzed at the end of the treatment period, and transplanted into 2nd recipients. Recipients were analyzed for engraftment at 8 weeks or monitored for leukemia onset and survival. […] Mice were analyzed 8 weeks after transplantation. […] FIG. 7G.
AML cells (1×10^6 or 2×10^6) were directly transplanted into sub-lethally irradiated congenic recipients. […] To further assess the impact on LSC activity, we transplanted bone marrow cells (2×10^6) from these treated mice into secondary recipients and analyzed for AML engraftment.

HDAC1 = HDAC1 (Homo sapiens (Human), UniProt Q13547); experiment: Inhibition of purified HDAC1; type: biochemical; conditions: class I; read-out: HDAC 1 IC50
HeLa nuclear HDACs = experiment: Inhibition of HeLa nuclear HDACs (HeLa nuclear extract, mainly HDACs1-3); type: biochemical; conditions: read-out: HeLa HDAC IC50
[5] = test system: inv(16)^+ AML CD34^+ cells; experiment: Proliferation of inv(16)+ AML CD34+ cells, ATP-based cell viability assay; design: species or system human; conditions: 48 h, 2.5 μM to 40 μM, compared to normal CD34+ cells
MOLM13 cells = experiment: Survival/apoptosis of MOLM13 AML cells by Annexin V labeling; type: cell-based, human
[6] = test system: Ac-p53 in non-inv(16) AML (p53 non-mutated) CD34^+ cells; experiment: Western blot of Ac-p53 in non-inv(16) AML CD34+ cells; conditions: similar treatment
Source text: We therefore tested whether inhibiting HDAC8 deacetylase activity in inv(16)^+ AML CD34^+ cells could similarly lead to increased p53 acetylation and transcriptional activity.

[7] = test system: Ac-p53 (K379) in 32D-CM cells; experiment: Western blot of Ac-p53 in CBFβ-SMMHC (CM)-expressing 32D cells; type: cell-based
Source text: Cells were lysed in RIPA buffer containing protease inhibitor cocktail (Roche) and MG132. Antibodies used for IP were conjugated with protein A/G beads using the antibody cross-linking kit (Pierce Biotechnology, Rockford, Ill.) following manufacturer's protocol. For Western blot, proteins were resolved in 10% SDS-PAGE. The antibodies used induced anti-FLAG (Sigma), anti-HDAC8, anti-CBFβ (Santa Cruz), anti-p53 (DO-1), anti-Ac-p53 (K379) (Cell Signaling), anti-p53 (Cell signaling) and anti-β-actin (Sigma). Horseradish peroxidase-conjugated anti-rabbit or anti-mouse secondary antibodies (Jackson ImmunoResearch, West Grove Pa.) were used, followed by detection using the SuperFemto kit (Pierce Biotechnology, Rockford, Ill.).
Class 1 HDACs, including HDAC1, HDAC2, and HDAC3, reportedly could inhibit p53 activity by deacetylating p53 [41-43]. […] To test this, we used lentivirus (pLKO. 1) mediated expression of 2 independent small-hairpin (sh)-RNA sequences against Hdac8 to specifically knock-down Hdac8 in 32D-CM cells. Cells were exposed to IR (3Gy) and analyzed for levels of p53 acetylation 6 h after.

[8] = test system: normal HSCs (CB CD34^+ cells); experiment: Engraftment of normal CB CD34+ cells treated ex vivo into NSG mice; conditions: 10 μM 48 h ex vivo, 16 weeks
Source text: FIGS. 18A-18F. […] Shown are engraftment levels of each population (CD45+, CD34+, CD33+, CD14+, CD15+) in the bone marrow and spleen weight at 16 weeks after transplantation. […] FIGS. 18A-18F (in order): CD45+, CD34+, CD33+, CD14+, CD15+, and spleen.
AML is maintained by LSCs that are relatively resistant to chemotherapy and can persist as potential sources of relapse. Even though AML with CBF translocations are considered to have favorable prognosis, the incidence of relapse is still 25-58% with chemotherapy.

KG1a cells = experiment: Survival of KG1a AML cells by Annexin V labeling; type: cell-based, human; conditions: 48 h, result in words

Sequence of HDAC1 (Q13547 whole entry, species assumed): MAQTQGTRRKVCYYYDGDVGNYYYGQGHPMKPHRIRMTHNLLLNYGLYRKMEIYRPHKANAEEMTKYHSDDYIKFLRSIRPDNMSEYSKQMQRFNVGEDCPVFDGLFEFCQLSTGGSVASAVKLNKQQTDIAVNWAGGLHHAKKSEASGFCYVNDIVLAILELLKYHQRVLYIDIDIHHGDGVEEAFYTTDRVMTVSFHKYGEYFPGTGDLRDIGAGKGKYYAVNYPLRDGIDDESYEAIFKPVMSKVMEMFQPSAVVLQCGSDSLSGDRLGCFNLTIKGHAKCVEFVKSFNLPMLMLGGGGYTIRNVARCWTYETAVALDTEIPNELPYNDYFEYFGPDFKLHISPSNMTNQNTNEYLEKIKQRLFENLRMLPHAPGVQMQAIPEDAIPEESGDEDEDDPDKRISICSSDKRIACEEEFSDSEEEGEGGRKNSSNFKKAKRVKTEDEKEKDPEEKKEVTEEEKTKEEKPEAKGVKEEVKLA
Sequence of HDAC11 (Q96DB2 whole entry, species assumed): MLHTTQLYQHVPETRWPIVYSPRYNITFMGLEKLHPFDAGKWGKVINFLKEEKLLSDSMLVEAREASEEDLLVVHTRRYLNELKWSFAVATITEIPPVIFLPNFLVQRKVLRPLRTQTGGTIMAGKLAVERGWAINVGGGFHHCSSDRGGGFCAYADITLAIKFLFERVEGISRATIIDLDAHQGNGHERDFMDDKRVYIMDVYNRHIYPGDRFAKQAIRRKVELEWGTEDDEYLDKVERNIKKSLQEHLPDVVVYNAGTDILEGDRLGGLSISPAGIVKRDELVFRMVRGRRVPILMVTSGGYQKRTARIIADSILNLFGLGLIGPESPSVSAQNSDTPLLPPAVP

Question: Which IC50 (H1299 cells; read-out: Cytotoxicity IC50 H1299, mean SD of three determinations) does the source give for `COc1ccc(/C=C/C(=O)NO)c(-c2ccc(-c3ccccc3)cc2)c1` [Compound 22d, (E)-N-Hydroxy-4-methoxy-2-(biphenyl-4-yl)cinnamide] here?
Answer: The IC50 was 7.2 ± 0.7 nM.

Question: What about the “anti-proliferative effects in H1299 cells” value (H1299 cells; result in words) of the same compound?
Answer: The value was “moderate anti-proliferative effects”.

Question: What about the “anti-proliferative effects in A549 cells” value (A549 cells) of the same compound?
Answer: Its value is “moderate anti-proliferative effects”.

Question: What about the “activation of p53 targets (Bax, Puma, p21, Gadd45b and LincRNA-p21)” value [1] of the same compound?
Answer: The value was “Variable levels of activation”.

Question: And the IC50 (MV4-11 cells; 48-hr, Annexin V labeling, read-out: MV4-11 Apoptosis IC50)?
Answer: Its IC50 is 2710 nM.

Question: What about the “survival of MV4-11 cells” value (MV4-11 cells; 48 h, result in words) of the same compound?
Answer: Its value is “decreases with increased HDAC8i concentration”.

Question: What about the “apoptosis of inv(16)+ AML CD34+ cells” value ([2]; 48 h, compared to normal CD34+ cells or non-inv(16) AML) of the same compound?
Answer: The value was “selectively induced apoptosis”.

Question: What about the “22d-induced apoptosis after p53 knock-down” value ([2]; p53 shRNA vs non-silencing shRNA control, 2.5-40 μM) of the same compound?
Answer: The value was “reduction of 22d-induced apoptosis”.

Question: What about the “Ac-p53 and p53 signal by western blot” value [3] of the same compound?
Answer: Its value is “greater signal for Ac-p53 and p53”.

Question: What about the IC50 (HDAC11) of the same compound?
Answer: The IC50 was > 20 nM.

Question: What about the “leukemia onset in secondary recipients” value ([4]; 5-7 weeks after transplant of 5×10^6 BM cells) of the same compound?
Answer: Its value is “no signs of leukemia”.

Question: What about the “frequency and number of AML cells in bone marrow of secondary recipients” value ([4]; 8 weeks after transplantation of BM from treated mice) of the same compound?
Answer: Its value is “Significant reduction in the frequency (p<0.0001) and the number (p=0.0006)”.

Question: And the “frequency and number of dTomato+/cKit+ AML cells in the bone marrow” value ([4]; intraperitoneal 50 mg/kg/dose twice a day for 2 weeks, vs vehicle)?
Answer: The value was “significantly reduced the frequency (p=0.0097) and the number (p=0.0101)”.

Question: What about the IC50 (HDAC1) of the same compound?
Answer: Its IC50 is 3 ± 0.2 nM.

Question: What about the IC50 (HeLa nuclear HDACs) of the same compound?
Answer: The IC50 was > 10000 nM.

Question: What about the “proliferation of inv(16)+ CD34+ cells” value [5] of the same compound?
Answer: Its value is “significantly reduced proliferation”.

Question: And the IC50 (MOLM13 cells; 48-hr, Annexin V labeling, read-out: MOLM13 Apoptosis IC50)?
Answer: Its IC50 is 3620 nM.

Question: And the “survival of MOLM13 cells” value (MOLM13 cells; 48 h, result in words)?
Answer: Its value is “decreases with increased HDAC8i concentration”.

Question: And the “Ac-p53 level in non-inv(16) AML CD34+ cells” value [6]?
Answer: The value was “did not affect Ac-p53”.

Question: And the “Ac-p53 level in CM-expressing cells” value ([7]; Western blot, 6 h)?
Answer: Its value is “remarkably increased Ac-p53”.

Question: What about the “Ac-p53 level, in combination with Nutlin-3” value ([7]; compared to Nutlin-3 alone) of the same compound?
Answer: Its value is “enhanced Ac-p53 compared to Nutlin-3 alone”.

Question: What about the “enhancement of p53 acetylation compared to other HDAC inhibitors” value ([7]; vs MS-275, TV6, PCI-24781) of the same compound?
Answer: The value was “differential activity in enhancing p53 acetylation”.

Question: And the “engraftment activity of normal HSCs” value [8]?
Answer: Its value is “does not affect normal HSC engraftment; also recorded: no impact on short-term or long-term engraftment activity”.

Question: What about the “survival of KG1a cells” value (KG1a cells) of the same compound?
Answer: Its value is “decreases with increased HDAC8i concentration”.
